Test results published in patent US11230547B2, “Purine inhibitors of human phosphatidylinositol 3-kinase delta” (Merck Sharp & Dohme Corp., priority 2017, dated 2022).

How the values were obtained:
PI3Kdelta = PI3Kdelta (Homo sapiens (Human), UniProt O00329); experiment: HTRF PI3K biochemical assay, delta isoform; details: 0.3 nM enzyme, 100 uM ATP, 5 uM PIP2, form screened per table
Method in brief: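 PI3Kδ at 0.3 nM preincubated 15 min with compound, then reacted 1 h at room temperature with 100 uM ATP and 5 uM PIP2. PIP3 product detected by competitive HTRF displacing biotin-PIP3 from GST-GRP1 PH domain, so signal falls with activity. 10-point 3-fold dose response.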

PI3Kalpha = PI3Kalpha (Homo sapiens (Human), UniProt P42336); experiment: HTRF PI3K biochemical assay, alpha isoform (selectivity versus delta); details: relative ratio PI3K-alpha IC50 value / PI3K-delta IC50 value
Method in brief: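 Recombinant human PI3Kα (0.5 nM) preincubated 15 min with compound, then reacted 1 h at room temperature with 100 uM ATP and 5 uM PIP2. PIP3 formation detected by HTRF competition with biotin-PIP3 for GST-GRP1 PH domain (Eu/APC, 665/620 nm); product lowers signal.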

Sequence of PI3Kalpha (P42336 whole entry, the tested form may be a part, canonical isoform): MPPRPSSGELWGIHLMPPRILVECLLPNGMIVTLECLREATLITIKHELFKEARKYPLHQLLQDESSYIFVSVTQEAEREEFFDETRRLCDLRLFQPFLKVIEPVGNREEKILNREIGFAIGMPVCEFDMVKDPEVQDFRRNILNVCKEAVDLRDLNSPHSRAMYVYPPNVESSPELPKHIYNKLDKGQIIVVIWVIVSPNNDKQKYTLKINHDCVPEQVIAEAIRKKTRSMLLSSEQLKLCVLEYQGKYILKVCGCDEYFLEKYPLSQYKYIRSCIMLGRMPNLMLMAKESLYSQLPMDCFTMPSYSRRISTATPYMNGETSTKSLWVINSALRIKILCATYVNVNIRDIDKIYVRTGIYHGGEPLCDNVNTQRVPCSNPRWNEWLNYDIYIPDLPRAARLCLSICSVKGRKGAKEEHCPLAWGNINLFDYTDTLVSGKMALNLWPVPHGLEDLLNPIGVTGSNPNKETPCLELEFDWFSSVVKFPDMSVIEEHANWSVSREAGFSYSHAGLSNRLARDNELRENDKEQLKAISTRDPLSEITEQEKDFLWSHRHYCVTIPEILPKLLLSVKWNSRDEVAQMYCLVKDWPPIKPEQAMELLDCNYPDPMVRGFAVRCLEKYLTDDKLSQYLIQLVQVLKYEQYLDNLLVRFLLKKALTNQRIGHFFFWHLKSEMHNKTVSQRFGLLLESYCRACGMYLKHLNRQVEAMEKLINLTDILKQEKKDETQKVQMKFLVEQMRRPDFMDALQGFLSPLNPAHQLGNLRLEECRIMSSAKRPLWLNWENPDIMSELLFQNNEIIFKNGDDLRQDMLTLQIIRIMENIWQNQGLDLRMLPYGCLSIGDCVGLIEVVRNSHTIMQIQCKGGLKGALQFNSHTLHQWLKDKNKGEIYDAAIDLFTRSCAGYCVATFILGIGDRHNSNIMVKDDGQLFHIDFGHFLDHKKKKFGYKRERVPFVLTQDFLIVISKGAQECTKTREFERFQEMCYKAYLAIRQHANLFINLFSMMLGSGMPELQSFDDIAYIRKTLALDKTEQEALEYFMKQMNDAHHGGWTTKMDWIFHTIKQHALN
Sequence of PI3Kalpha (P27986 whole entry partner, the tested form may be a part, canonical isoform): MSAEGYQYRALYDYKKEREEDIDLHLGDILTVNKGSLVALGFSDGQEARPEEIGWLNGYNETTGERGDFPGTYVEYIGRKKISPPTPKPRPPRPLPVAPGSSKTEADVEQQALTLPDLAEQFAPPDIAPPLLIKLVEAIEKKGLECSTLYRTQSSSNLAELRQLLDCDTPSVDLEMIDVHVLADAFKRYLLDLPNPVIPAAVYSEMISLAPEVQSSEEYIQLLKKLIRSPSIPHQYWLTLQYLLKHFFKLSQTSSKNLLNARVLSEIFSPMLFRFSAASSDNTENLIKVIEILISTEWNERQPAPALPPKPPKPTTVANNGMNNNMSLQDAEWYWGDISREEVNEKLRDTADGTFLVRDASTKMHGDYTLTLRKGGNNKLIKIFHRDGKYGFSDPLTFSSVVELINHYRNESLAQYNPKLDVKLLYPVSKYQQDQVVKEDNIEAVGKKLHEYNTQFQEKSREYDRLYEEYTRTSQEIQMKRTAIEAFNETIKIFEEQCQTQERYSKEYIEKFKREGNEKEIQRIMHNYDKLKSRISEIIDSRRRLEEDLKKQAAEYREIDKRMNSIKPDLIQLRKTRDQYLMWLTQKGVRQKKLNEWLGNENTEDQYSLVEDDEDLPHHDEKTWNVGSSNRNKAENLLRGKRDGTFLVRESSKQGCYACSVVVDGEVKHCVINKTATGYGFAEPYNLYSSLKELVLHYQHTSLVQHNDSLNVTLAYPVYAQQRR
Sequence of PI3Kdelta (O00329 whole entry, the tested form may be a part, canonical isoform): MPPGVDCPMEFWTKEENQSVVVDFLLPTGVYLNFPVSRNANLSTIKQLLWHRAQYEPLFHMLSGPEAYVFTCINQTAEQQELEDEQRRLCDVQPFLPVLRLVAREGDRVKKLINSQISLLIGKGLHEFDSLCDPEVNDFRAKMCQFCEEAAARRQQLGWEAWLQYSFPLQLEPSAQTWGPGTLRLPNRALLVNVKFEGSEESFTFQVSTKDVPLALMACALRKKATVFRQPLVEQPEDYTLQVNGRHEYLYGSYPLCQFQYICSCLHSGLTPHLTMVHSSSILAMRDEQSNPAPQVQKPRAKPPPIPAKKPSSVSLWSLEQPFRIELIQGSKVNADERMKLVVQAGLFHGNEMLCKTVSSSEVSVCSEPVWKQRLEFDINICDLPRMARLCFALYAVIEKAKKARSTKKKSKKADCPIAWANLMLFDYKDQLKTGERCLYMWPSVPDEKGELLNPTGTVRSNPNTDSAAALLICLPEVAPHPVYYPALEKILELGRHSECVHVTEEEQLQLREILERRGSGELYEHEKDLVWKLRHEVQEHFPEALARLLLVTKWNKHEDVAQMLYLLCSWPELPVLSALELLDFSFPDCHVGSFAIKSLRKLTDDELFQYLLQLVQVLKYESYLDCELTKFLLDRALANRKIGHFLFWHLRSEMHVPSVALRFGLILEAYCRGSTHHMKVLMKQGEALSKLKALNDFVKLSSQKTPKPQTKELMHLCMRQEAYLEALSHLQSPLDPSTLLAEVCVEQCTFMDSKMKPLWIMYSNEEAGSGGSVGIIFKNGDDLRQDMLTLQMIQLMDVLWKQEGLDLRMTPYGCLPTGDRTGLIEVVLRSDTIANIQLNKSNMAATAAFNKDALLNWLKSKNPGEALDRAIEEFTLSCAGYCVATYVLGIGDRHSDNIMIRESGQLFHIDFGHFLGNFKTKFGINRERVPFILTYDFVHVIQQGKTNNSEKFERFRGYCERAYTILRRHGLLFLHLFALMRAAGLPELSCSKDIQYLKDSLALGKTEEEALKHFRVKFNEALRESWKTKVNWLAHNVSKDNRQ
Sequence of PI3Kdelta (P27986 whole entry partner, the tested form may be a part, canonical isoform): as the sequence (P27986 whole entry partner, the tested form may be a part, canonical isoform) above

| SMILES | IC50 (PI3Kdelta) [nM] | Selectivity versus PI3Kalpha (PI3Kalpha) |
| --- | --- | --- |
| C[C@@H]1CN(c2nc(-c3cnn(C)c3)nc(NCCC(F)(F)F)c2C#N)CCN1C(=O)C1CC1 [Compound 6-19, 4-[(3R)-4-(cyclopropylcarbonyl)-3-methylpiperazin-1-yl]-2-(1-methyl-1H-pyrazol-4-yl)-6-[(3,3,3-trifluoropropyl)amino]pyrimidine-5-carbonitrile] | 9.4 | >10 |
| CC(C)Nc1nc(-c2cnn(C)c2)nc(N2CCN(C(=O)C3CC3)[C@H](C)C2)c1C#N [Compound 6-20, 4-[(3R)-4-(cyclopropylcarbonyl)-3-methylpiperazin-1-yl]-6-[(1-methylethyl)amino]-2-(1-methyl-1H-pyrazol-4-yl)pyrimidine-5-carbonitrile] | 150 | >10 |
| CC(C)CNc1nc(-c2cnn(C)c2)nc(N2CCN(C(=O)C3CC3)[C@H](C)C2)c1C#N [Compound 6-21, 4-[(3R)-4-(cyclopropylcarbonyl)-3-methylpiperazin-1-yl]-6-[(2-methylpropyl)amino]-2-(1-methyl-1H-pyrazol-4-yl)pyrimidine-5-carbonitrile] | 21 | >10 |
| C[C@@H]1CN(c2nc(-c3cnn(C)c3)nc(OCC(F)(F)F)c2C#N)CCN1C(=O)C1CC1 [Compound 6-22, 4-[(3R)-4-(cyclopropylcarbonyl)-3-methylpiperazin-1-yl]-2-(1-methyl-1H-pyrazol-4-yl)-6-(2,2,2-trifluoroethoxy)pyrimidine-5-carbonitrile] | 9.7 | >10 |
| C[C@@H]1CN(c2nc(-c3cnn(C)c3)nc(N3CC(C(F)(F)F)C3)c2C#N)CCN1C(=O)C1CC1 [Compound 6-23, 4-[(3R)-4-(cyclopropylcarbonyl)-3-methylpiperazin-1-yl]-2-(1-methyl-1H-pyrazol-4-yl)-6-[3-(trifluoromethyl)azetidin-1-yl]pyrimidine-5-carbonitrile] | 83 | >10 |
| CCCc1nc(-c2cnn(C)c2)nc(N2CCN(C(=O)C3CC3)[C@H](C)C2)c1C#N [Compound 6-24, 4-[(3R)-4-(cyclopropylcarbonyl)-3-methylpiperazin-1-yl]-2-(1-methyl-1H-pyrazol-4-yl)-6-propylpyrimidine-5-carbonitrile] | 200 | >10 |
| CCCc1nc(N2CCN(C(=O)C3CC3)[C@H](C)C2)nc(-c2cnn(C)c2)c1C#N [Compound 6-25, 2-[(3R)-4-(cyclopropylcarbonyl)-3-methylpiperazin-1-yl]-4-(1-methyl-1H-pyrazol-4-yl)-6-propylpyrimidine-5-carbonitrile] | 10 | >10 |
| C[C@@H]1CN(c2nc(CCC(F)(F)F)c(C#N)c(-c3cnn(C)c3)n2)CCN1C(=O)C1CC1 [Compound 6-26, 2-[(3R)-4-(cyclopropylcarbonyl)-3-methylpiperazin-1-yl]-4-(1-methyl-1H-pyrazol-4-yl)-6-(3,3,3-trifluoropropyl)pyrimidine-5-carbonitrile] | 12 | >10 |
| C[C@@H]1CN(c2nc(-c3cnn(C)c3)c(C#N)c(C3CC3)n2)CCN1C(=O)C1CC1 [Compound 6-27, 4-cyclopropyl-2-[(3R)-4-(cyclopropylcarbonyl)-3-methylpiperazin-1-yl]-6-(1-methyl-1H-pyrazol-4-yl)pyrimidine-5-carbonitrile] | 32 | >10 |
| Cc1nn(C)cc1-c1ncc(C#N)c(N2CCN(C(=O)C3CC3)[C@H](C)C2)n1 [Compound 6-28, 4-[(3R)-4-(cyclopropylcarbonyl)-3-methylpiperazin-1-yl]-2-(1,3-dimethyl-1H-pyrazol-4-yl)pyrimidine-5-carbonitrile] | 140 | >10 |
| Cc1c(-c2ncc(C#N)c(N3CCN(C(=O)C4CC4)[C@H](C)C3)n2)cnn1C [Compound 6-29, 4-[(3R)-4-(cyclopropylcarbonyl)-3-methylpiperazin-1-yl]-2-(1,5-dimethyl-1H-pyrazol-4-yl)pyrimidine-5-carbonitrile] | 81 | >10 |
| C[C@@H]1CN(c2nc(-c3cnn(C(F)F)c3)ncc2C#N)CCN1C(=O)C1CC1 [Compound 6-30, 4-[(3R)-4-(cyclopropylcarbonyl)-3-methylpiperazin-1-yl]-2-[1-(difluoromethyl)-1H-pyrazol-4-yl]pyrimidine-5-carbonitrile] | 330 | >10 |
